Laboratory results as given in PubChem BioAssay AID2060490 (Molecular Pharmacology Branch, DTP, NCI, 2025).

Test system: 885512-296-R-J2-PDC complex spheroid viability
Assay: Anticancer human tumor 885512-296-R-J2-PDC patient-derived breast carcinoma cell line growth inhibition [GQUAD]
Settings: for IC50: curve of first compound; for viability, T/C: stronger effect = lower value
How it was run: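 Viability of tumor cells grown as complex spheroids with endothelial and stromal cells, exposed to drug combinations. Top concentration at or near clinical Cmax (else 10 microM), diluted in half-log increments.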

[1] = second compound 0.0316 µM, first compound 0.0316 µM
[2] = second compound 0.0316 µM, first compound 0.1 µM
[3] = second compound 0.0316 µM, first compound 0.316 µM
[4] = second compound 0.0316 µM, first compound 1 µM
[5] = second compound 0.0316 µM, first compound 3.16 µM
[6] = second compound 0.0316 µM, first compound 10 µM
[7] = second compound 0.1 µM, first compound 0.0316 µM
[8] = second compound 0.1 µM, first compound 0.1 µM
[9] = second compound 0.1 µM, first compound 0.316 µM
[10] = second compound 0.1 µM, first compound 1 µM
[11] = second compound 0.1 µM, first compound 3.16 µM
[12] = second compound 0.1 µM, first compound 10 µM
[13] = second compound 0.316 µM, first compound 0.0316 µM
[14] = second compound 0.316 µM, first compound 0.1 µM
[15] = second compound 0.316 µM, first compound 0.316 µM
[16] = second compound 0.316 µM, first compound 1 µM
[17] = second compound 0.316 µM, first compound 3.16 µM
[18] = second compound 0.316 µM, first compound 10 µM
[19] = second compound 1 µM, first compound 0.0316 µM
[20] = second compound 1 µM, first compound 0.1 µM
[21] = second compound 1 µM, first compound 0.316 µM
[22] = second compound 1 µM, first compound 1 µM
[23] = second compound 1 µM, first compound 3.16 µM
[24] = second compound 1 µM, first compound 10 µM
[25] = second compound 3.16 µM, first compound 0.0316 µM
[26] = second compound 3.16 µM, first compound 0.1 µM
[27] = second compound 3.16 µM, first compound 0.316 µM
[28] = second compound 3.16 µM, first compound 1 µM
[29] = second compound 3.16 µM, first compound 3.16 µM
[30] = second compound 3.16 µM, first compound 10 µM
[31] = second compound 10 µM, first compound 0.0316 µM
[32] = second compound 10 µM, first compound 0.1 µM
[33] = second compound 10 µM, first compound 0.316 µM
[34] = second compound 10 µM, first compound 1 µM
[35] = second compound 10 µM, first compound 3.16 µM
[36] = second compound 10 µM, first compound 10 µM
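Further: spheroids exposed to the compounds for one week.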
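Wherever viability, T/C is given: percent of tumor spheroid viability relative to DMSO vehicle control wells.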

C=CC(=O)N1CCN(c2nc(=O)n(-c3c(C)ccnc3C(C)C)c3nc(-c4c(O)cccc4F)c(F)cc23)C(C)C1 (stereo unspecified) + Cc1cnc(CNC(=O)c2c(=O)c3ccc(N4CCCN(C)CC4)nc3n3c2sc2ccccc23)cn1
IC50 (second compound 0.0316 µM): > 10000 nM | IC50 (second compound 0.1 µM): > 10000 nM | IC50 (second compound 0.316 µM): < 31.6 nM | IC50 (second compound 1 µM): < 31.6 nM | IC50 (second compound 3.16 µM): < 31.6 nM | IC50 (second compound 10 µM): < 31.6 nM | viability, T/C [1]: 90.5% | viability, T/C [2]: 81.3% | viability, T/C [3]: 107% | viability, T/C [4]: 105% | viability, T/C [5]: 99.1% | viability, T/C [6]: 76.9% | viability, T/C [7]: 60.9% | viability, T/C [8]: 66% | viability, T/C [9]: 68.5% | viability, T/C [10]: 67.5% | viability, T/C [11]: 79.5% | viability, T/C [12]: 47.3% | viability, T/C [13]: 35.9% | viability, T/C [14]: 29.3% | viability, T/C [15]: 33.8% | viability, T/C [16]: 31.1% | viability, T/C [17]: 33.6% | viability, T/C [18]: 24% | viability, T/C [19]: 23.4% | viability, T/C [20]: 30.9% | viability, T/C [21]: 33.2% | viability, T/C [22]: 24.1% | viability, T/C [23]: 22.6% | viability, T/C [24]: 28.3% | viability, T/C [25]: 34.5% | viability, T/C [26]: 31.4% | viability, T/C [27]: 19.4% | viability, T/C [28]: 27% | viability, T/C [29]: 29.8% | viability, T/C [30]: 32.3% | viability, T/C [31]: 0.14% | viability, T/C [32]: 0.2% | viability, T/C [33]: 0.24% | viability, T/C [34]: 0.2% | viability, T/C [35]: 0.2% | viability, T/C [36]: 1.55%

CC[C@@]1(O)C(=O)OCc2c1cc1n(c2=O)Cc2cc3c(CN(C)C)c(O)ccc3nc2-1 + Cc1cnc(CNC(=O)c2c(=O)c3ccc(N4CCCN(C)CC4)nc3n3c2sc2ccccc23)cn1
IC50 (second compound 0.0316 µM): 13.9 nM | IC50 (second compound 0.1 µM): 3.86 nM | IC50 (second compound 0.316 µM): < 0.999 nM | IC50 (second compound 1 µM): < 0.999 nM | IC50 (second compound 3.16 µM): < 0.999 nM | IC50 (second compound 10 µM): < 0.999 nM | viability, T/C (second compound 0.0316 µM, first compound 0.000999 µM): 82.1% | viability, T/C (second compound 0.0316 µM, first compound 0.00316 µM): 77.9% | viability, T/C (second compound 0.0316 µM, first compound 0.00999 µM): 62.1% | viability, T/C [1]: 20.5% | viability, T/C (second compound 0.0316 µM, first compound 0.0999 µM): 15.2% | viability, T/C [3]: 6.65% | viability, T/C (second compound 0.1 µM, first compound 0.000999 µM): 63.8% | viability, T/C (second compound 0.1 µM, first compound 0.00316 µM): 52.1% | viability, T/C (second compound 0.1 µM, first compound 0.00999 µM): 37.4% | viability, T/C [7]: 20.1% | viability, T/C (second compound 0.1 µM, first compound 0.0999 µM): 13.4% | viability, T/C [9]: 9.1% | viability, T/C (second compound 0.316 µM, first compound 0.000999 µM): 30% | viability, T/C (second compound 0.316 µM, first compound 0.00316 µM): 19.1% | viability, T/C (second compound 0.316 µM, first compound 0.00999 µM): 21.3% | viability, T/C [13]: 16.1% | viability, T/C (second compound 0.316 µM, first compound 0.0999 µM): 16.9% | viability, T/C [15]: 12% | viability, T/C (second compound 1 µM, first compound 0.000999 µM): 21.8% | viability, T/C (second compound 1 µM, first compound 0.00316 µM): 22.8% | viability, T/C (second compound 1 µM, first compound 0.00999 µM): 18.4% | viability, T/C [19]: 20.1% | viability, T/C (second compound 1 µM, first compound 0.0999 µM): 15.2% | viability, T/C [21]: 12% | viability, T/C (second compound 3.16 µM, first compound 0.000999 µM): 29.7% | viability, T/C (second compound 3.16 µM, first compound 0.00316 µM): 24% | viability, T/C (second compound 3.16 µM, first compound 0.00999 µM): 24.8% | viability, T/C [25]: 20.2% | viability, T/C (second compound 3.16 µM, first compound 0.0999 µM): 12.8% | viability, T/C [27]: 8.5% | viability, T/C (second compound 10 µM, first compound 0.000999 µM): 0.07% | viability, T/C (second compound 10 µM, first compound 0.00316 µM): 0.13% | viability, T/C (second compound 10 µM, first compound 0.00999 µM): 0.24% | viability, T/C [31]: 0.16% | viability, T/C (second compound 10 µM, first compound 0.0999 µM): 0.17% | viability, T/C [33]: 0.14%

COc1cc(C2c3cc4c(cc3C(OC3OC5COC(C)OC5C(O)C3O)C3COC(=O)C23)OCO4)cc(OC)c1O (stereo unspecified) + Cc1cnc(CNC(=O)c2c(=O)c3ccc(N4CCCN(C)CC4)nc3n3c2sc2ccccc23)cn1
IC50 (second compound 0.0316 µM): 318 nM | IC50 (second compound 0.1 µM): 187 nM | IC50 (second compound 0.316 µM): < 31.6 nM | IC50 (second compound 1 µM): < 31.6 nM | IC50 (second compound 3.16 µM): < 31.6 nM | IC50 (second compound 10 µM): < 31.6 nM | viability, T/C [1]: 80.8% | viability, T/C [2]: 81% | viability, T/C [3]: 48% | viability, T/C [4]: 22.8% | viability, T/C [5]: 13.4% | viability, T/C [6]: 10.5% | viability, T/C [7]: 57.2% | viability, T/C [8]: 55.8% | viability, T/C [9]: 45% | viability, T/C [10]: 28% | viability, T/C [11]: 13.7% | viability, T/C [12]: 11.4% | viability, T/C [13]: 26% | viability, T/C [14]: 34.3% | viability, T/C [15]: 23.3% | viability, T/C [16]: 24.1% | viability, T/C [17]: 16.4% | viability, T/C [18]: 8.65% | viability, T/C [19]: 29% | viability, T/C [20]: 21.8% | viability, T/C [21]: 23.6% | viability, T/C [22]: 21.1% | viability, T/C [23]: 21.3% | viability, T/C [24]: 14.2% | viability, T/C [25]: 34% | viability, T/C [26]: 28.4% | viability, T/C [27]: 29.6% | viability, T/C [28]: 23.5% | viability, T/C [29]: 22.3% | viability, T/C [30]: 17.7% | viability, T/C [31]: 0.09% | viability, T/C [32]: 0.17% | viability, T/C [33]: 0.18% | viability, T/C [34]: 0.15% | viability, T/C [35]: 0.16% | viability, T/C [36]: 0.18%
